# Results: patent US7271005B2, “Modulation of bacterial membrane permeability” (priority 2002, dated 2007)
# T1: PprA / PprB (Pseudomonas aeruginosa, UniProt Q9HWA7)
# T1 construct: coding regions of the two open reading frames were amplified by PCR; His-tag; made in house; host or cells: E. coli strain M15 (pREP4) with pYW021 (pQE32-pprA) or pYW024 (pQE31-pprB)
# T1 sequence (Q9HWA7 1-922): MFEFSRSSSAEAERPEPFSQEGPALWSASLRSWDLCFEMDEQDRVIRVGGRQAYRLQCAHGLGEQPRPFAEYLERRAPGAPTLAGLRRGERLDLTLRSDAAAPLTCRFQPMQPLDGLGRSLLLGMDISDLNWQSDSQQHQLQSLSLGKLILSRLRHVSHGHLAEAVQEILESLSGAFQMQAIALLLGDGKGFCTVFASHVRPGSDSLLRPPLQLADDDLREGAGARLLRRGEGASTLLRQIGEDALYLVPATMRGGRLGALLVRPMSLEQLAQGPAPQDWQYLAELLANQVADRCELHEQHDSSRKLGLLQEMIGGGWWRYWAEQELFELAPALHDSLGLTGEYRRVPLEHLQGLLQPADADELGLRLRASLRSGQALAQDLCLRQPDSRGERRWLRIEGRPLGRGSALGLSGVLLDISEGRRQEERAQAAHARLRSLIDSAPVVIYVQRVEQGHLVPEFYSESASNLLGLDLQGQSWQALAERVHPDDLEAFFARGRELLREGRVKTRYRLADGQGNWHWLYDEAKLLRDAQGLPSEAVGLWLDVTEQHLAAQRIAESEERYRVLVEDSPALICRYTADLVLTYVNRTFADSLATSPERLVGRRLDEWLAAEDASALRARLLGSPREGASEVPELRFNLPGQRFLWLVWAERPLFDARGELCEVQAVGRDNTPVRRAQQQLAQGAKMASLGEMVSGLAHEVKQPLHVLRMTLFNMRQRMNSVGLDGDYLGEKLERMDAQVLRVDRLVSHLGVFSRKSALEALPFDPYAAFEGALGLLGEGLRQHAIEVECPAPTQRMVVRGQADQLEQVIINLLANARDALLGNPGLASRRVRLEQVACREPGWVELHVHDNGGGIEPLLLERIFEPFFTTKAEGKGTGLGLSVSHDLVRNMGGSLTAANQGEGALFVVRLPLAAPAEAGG
# B1: PprB: putative response regulator (PA4296) encoded by pprB, SEQ ID NO:4; His-tagged, purified from E. coli (protein, listed as Pseudomonas aeruginosa)
# chain: MDKPASRHFSVLIIDDEPQVTSELRELLENSGYRCVTSTHRESAIASFQADPNIGLVICDLYLGQDNGIRLIESLKEVAGNGRFFESIILTGHDGRQEVIEAMRVGAADYYQKPVAPQELLHGLERLESRLHERVRSQLSLSHVNQRLEYLAESLNSIYRDIHKIKYEVHGNSQPSALRSEDSQPSAPPAPVAESQVSPSNPLFGKLSPRQQAVARLVSKGLTNYQIAYELGITENTVKLYVSQVLRLMHMHNRTQLALALSPAAMQQGSGAVVH
# modifications: His tag
# notes: His-tagged, purified from E. coli
# B2: PprA: putative histidine kinase homolog (PA4293) encoded by pprA, SEQ ID NO:3; His-tagged, purified from E. coli (protein, listed as Pseudomonas aeruginosa)
# chain: T1 sequence (Q9HWA7 1-922)
# modifications: His tag
# notes: as for B1
# Columns and labels:
# [1] = test system: P. aeruginosa PAK1-3; test: Antibiotic resistance of spontaneous neomycin-resistant mutant PAK1-3 compared with parent PAK; assay type: cell-based, Pseudomonas aeruginosa; details: mutant PAK1-3 versus parent strain PAK
# Description: A mutant P. aeruginosa (PAK) strain was used to identify the pprA membrane permeability-associated gene. Spontaneous neomycin resistant mutants of PAK were selected by culturing on L-agar medium containing 200 μg/ml neomycin.
# [2] = test system: clinical isolates of P. aeruginosa; test: Antibiotic sensitivity of CF and non-CF blood clinical isolates; assay type: cell-based, Pseudomonas aeruginosa; details: 18 CF and 18 non-CF blood isolates; tetracycline 100 μg/ml
# Description: Overexpression of the pprB gene in clinical isolates increases sensitivity to aminoglycosides. The pprB overexpresser construct was introduced into aminoglycoside-resistant clinical isolates of P. aeruginosa. 18 cystic fibrosis (CF) isolates and 18 non-CF blood isolates showing varying degrees of resistance to all aminoglycosides were randomly chosen for analysis. Since most of the strains were also resistant to carbenicillin, but sensitive to tetracycline (100 μg/ml), a tetracycline-resistant construct, pRRBTc, that expresses the pprB gene under lac promoter was used.
# [3] = test system: PAK1-3 cells; test: Complementation of PAK1-3: aminoglycoside sensitivity after introduction of plasmids; assay type: cell-based, Pseudomonas aeruginosa; details: PprB overexpression compared with PprA overexpression
# Source text: A gene associated with membrane permeability, termed pprA, was identified by complementation assay in PAK1-3 cells. On the assumption that the PAK1-3 strain is an impermeable mutant due to loss of a gene function, an effort was made to complement the mutant with wild type PAK chromosomal DNA clones. A clone bank of 3-5 kb PAK chromosomal DNA was constructed in pUCP18, a broad host range plasmid with a lac promoter and β-lactamase. Plasmids with DNA inserts were gel purified from the clone bank and electroporated into PAK1-3.
# Transformants were first selected on L-agar containing carbenicillin (150 μg/ml) and then replica plated on L-agar containing carbenicillin (150 μg/ml) plus neomycin (200 μg/ml) to screen for isolates that are sensitive to aminoglycosides. […] Plasmids were purified from the three isolates and re-transformed into fresh PAK1-3 cells. […] This plasmid was designated pUCP18B.
# The pprB gene was amplified from the PAK chromosome by PCR and cloned into pUCP19, inserted in the same or opposite direction relative to the lac promoter on the vector. The resulting constructs were designated pZLRR-α and pZLRR-β, respectively. See, Wang et al., 2003, Antimicrobial Agents and Chemotherapy 47:95-101. The PCR product was cloned into pCR2.1-TOPO, resulting pCR-RR in which the pprB gene is in the opposite direction relative to the lac promoter. […]
# [4] = molecular target: T1, PprA / PprB; test: In vitro phosphorylation assay with [γ-32P] ATP; assay type: biochemical; details: 5 min at room temperature, SDS-PAGE, X-ray film
# Source text: (§1) PprA or PprB were purified and expressed at high levels in E. coli. To produce PprA or PprB in E.coli, coding regions of the two open reading frames were amplified by PCR as described in Wang et al., supra. The PCR products were first cloned into pCR2.1-TOPO, designated pYW017 and pYW020, respectively. Subsequently, a 2.8 kb pprA fragment from pYW017 and an 862 bp pprB fragment from pYW020 were isolated and subcloned into the BamHI and HindIII sites of pQE32 and pQE31, resulting in pYW021 and pYW024, respectively.
# (§2) To purify the His-tagged PprA or PprB, E.coli strain M15 harboring pREP4 and pYW021 or pYW024 were induced with 1 mM IPTG for six hours at 28° C. His-tagged PprA and PprB were affinity purified using Ni-agarose column from the soluble fraction of the cell extracts according to the protocol provided by Qiagen, Inc. The purified proteins were dialyzed against storage buffer (50 mM TrisCl pH8.0, 50 mM KCl, 5 mM MgCl2, 1 mM DTT and 50% glycerol) for overnight and stored at−20° C. until use.
# (§3) PprA and PprB function in a two-component regulatory system. Like other two-component regulatory genes, both PprA and PprB contain conserved phosphorylation sites (histidine and aspartate, respectively). An in vitro phosphorylation assay was performed to investigate the relationship between the PprA and PprB. PprA and PprB were purified as described in Example 4. […]
# [5] = test system: PprA / PprB; test: In vitro phosphorylation assay with [γ-32P] ATP; assay type: biochemical, Pseudomonas aeruginosa; details: 5 min at room temperature, SDS-PAGE, X-ray film
# Source text: as §1, §2, §3
Molecule,change of resistance/sensitivity of PAK1-3 to the antibiotic [1],also measured
NCC[C@H](O)C(=O)N[C@@H]1C[C@H](N)[C@@H](O[C@H]2O[C@H](CN)[C@@H](O)[C@H](O)[C@H]2O)[C@H](O)[C@H]1O[C@H]1O[C@H](CO)[C@@H](O)[C@H](N)[C@H]1O [amikacine],increased resistance,–
CC1(C)S[C@@H]2[C@H](NC(=O)C(C(=O)O)c3ccccc3)C(=O)N2[C@H]1C(=O)O (some centres unmarked) [carbenicillin],not significantly changed,sensitivity of most of the clinical isolates [2]: resistant
O=C(O)c1cn(C2CC2)c2cc(N3CCNCC3)c(F)cc2c1=O [ciprofloxacin],increased resistance,–
CC[C@H]1OC(=O)[C@H](C)[C@@H](O[C@H]2C[C@@](C)(OC)[C@@H](O)[C@H](C)O2)[C@H](C)[C@@H](O[C@@H]2O[C@H](C)C[C@H](N(C)C)[C@H]2O)[C@](C)(O)C[C@@H](C)C(=O)[C@H](C)[C@@H](O)[C@]1(C)O [erythromycin],increased resistance,–
[H]/N=C(/N)N[C@H]1[C@H](O)[C@@H](O)[C@H](O[C@@H]2O[C@@H](C)[C@](O)(C=O)[C@H]2O[C@@H]2O[C@@H](CO)[C@H](O)[C@@H](O)[C@@H]2NC)[C@@H](N/C(N)=N\[H])[C@@H]1O [streptomycin],increased resistance,–
NC[C@H]1O[C@H](O[C@H]2[C@H](O)[C@@H](O[C@H]3O[C@H](CO)[C@@H](O)[C@H](N)[C@H]3O)[C@H](N)C[C@@H]2N)[C@H](N)C[C@@H]1O [tobamycin],increased resistance,–
gentamicin,increased resistance,–
B1,–,effect of overexpression on the MIC change of PAK1-3 [3]: much more dramatic; phosphorylation of PprB when PprA was mixed with PprB [4]: highly phosphorylated
B2,–,phosphorylation of the purified protein alone [5]: phosphorylated
